Results reported in article PMC4423729 (Neuropharmacology, 2010).

How the values were obtained:
[1] = for solubility in an aqueous environment: qualitative
[2] = target: rtPA (Homo sapiens, UniProt P00750); assay: Plasminogen activator activity; type: biochemical; conditions: Glu-plasminogen 100 nM, Spectrazyme PL 500 μM, PBS, 37°C, A405, 3 experiments
[3] = test system: isolated aortic rings; assay: tPA induced vasodilation: phenylephrine contraction of isolated aortic rings; conditions: rtPA 1 nM, peptide 100 nM; EC50 of phenylephrine contraction; 3 experiments
[4] = test system: BBB permeability; assay: BBB permeability post ischemia; type: in vivo, rat; conditions: Evans blue, 12 animals/group
[5] = test system: BBB permeability; assay: BBB permeability by extravasation of radiolabeled fibrinogen in rats; type: in vivo, rat; conditions: PAI-1 or peptide 1 mg/kg IV together with rtPA 1 mg/kg, 6 animals/group
[6] = test system: Sprague-Dawley rats; conditions: rat, in vivo

Chain of rtPA (P00750 36-562): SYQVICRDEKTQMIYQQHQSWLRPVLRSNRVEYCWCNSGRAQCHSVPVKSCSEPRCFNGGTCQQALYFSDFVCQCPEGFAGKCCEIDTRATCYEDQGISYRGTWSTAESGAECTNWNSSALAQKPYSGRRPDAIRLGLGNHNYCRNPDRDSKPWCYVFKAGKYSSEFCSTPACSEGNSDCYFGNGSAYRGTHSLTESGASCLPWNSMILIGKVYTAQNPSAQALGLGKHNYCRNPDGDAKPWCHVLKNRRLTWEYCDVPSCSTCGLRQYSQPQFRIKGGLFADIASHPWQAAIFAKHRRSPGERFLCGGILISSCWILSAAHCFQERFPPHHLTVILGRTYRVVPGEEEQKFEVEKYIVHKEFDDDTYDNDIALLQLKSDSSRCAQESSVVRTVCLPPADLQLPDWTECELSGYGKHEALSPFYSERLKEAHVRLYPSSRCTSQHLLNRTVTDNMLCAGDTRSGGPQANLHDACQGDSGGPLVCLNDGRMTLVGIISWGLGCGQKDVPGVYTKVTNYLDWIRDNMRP

CC[C@H](C)[C@H](NC(=O)[C@H](CCC(=O)O)NC(=O)[C@H](CCC(=O)O)NC(=O)[C@@H]1CCCN1C(=O)[C@H](C)NC(=O)[C@H](CCSC)NC(=O)[C@H](CCCNC(=N)N)NC(C)=O)C(=O)N[C@H](C(=O)N[C@@H](CCSC)C(=O)N[C@@H](CC(=O)O)C(=O)N[C@@H](CCCNC(=N)N)C(=O)N1CCC[C@H]1C(=O)N[C@@H](Cc1ccccc1)C(=O)N[C@@H](CC(C)C)C(=O)N[C@@H](Cc1ccc(O)cc1)C(=O)N[C@H](C(=O)N[C@H](C(=O)N[C@@H](CCCNC(=N)N)C(N)=O)C(C)C)C(C)C)[C@@H](C)CC [18-aa-Tyr^383]
solubility in an aqueous environment [1]: more soluble in an aqueous environment than the original sequence
effect on the catalytic activity of rtPA (plasminogen activation) [2]: without inhibiting the catalytic activity of rtPA
inhibition of rtPA-induced vasodilation [3]: inhibited rtPA-induced vasodilation
inhibition of the late effect of rtPA on BBB permeability ([4]; peptide together with rtPA three hours after the filament was withdrawn): 96.7%

Ac-RMAPEEIIMDR-NH2 [11-aa]
effect on the catalytic activity of rtPA (plasminogen activation) [2]: without affecting the catalytic activity of rtPA
inhibition of rtPA-induced vasodilation [3]: inhibited vasodilation

CC[C@H](C)[C@H](NC(=O)[C@H](CCC(=O)O)NC(=O)[C@H](CCC(=O)O)NC(=O)[C@@H]1CCCN1C(=O)[C@H](C)NC(=O)[C@H](CCSC)NC(=O)[C@H](CCCNC(=N)N)NC(C)=O)C(=O)N[C@H](C(=O)N[C@@H](CCSC)C(=O)N[C@@H](CC(=O)O)C(=O)N[C@@H](CCCNC(=N)N)C(=O)N1CCC[C@H]1C(=O)N[C@@H](Cc1ccccc1)C(=O)N[C@@H](CC(C)C)C(=O)N[C@@H](Cc1ccccc1)C(=O)N[C@H](C(=O)N[C@H](C(=O)N[C@@H](CCCNC(=N)N)C(N)=O)C(C)C)C(C)C)[C@@H](C)CC [18-aa]
maximal solubility ([1]; lyophilized peptide resuspended in 50% ethanol at 37°C, vortexed): 200 µg/mL
solubility in an aqueous environment [1]: relatively insoluble
effect on the catalytic activity of rtPA (plasminogen activation) [2]: without affecting the catalytic activity of rtPA
effect on the catalytic activity of rtPA (plasminogen activation) ([2]; listed as 18-aa- Phe^383): without inhibiting the catalytic activity of rtPA
inhibition of rtPA-induced permeation of radiolabeled fibrinogen [5]: inhibited
inhibition of rtPA-induced vasodilation [3]: inhibited vasodilation

rtPA
effect of rtPA on mortality [6]: increased mortality
effect of rtPA on neurological severity score (NSS) [6]: aggravated the neurological disability
mortality [6]: 28.6±4.2%
BBB permeability post tMCAO ([4]; rtPA three hours after the filament was withdrawn): re-opened the BBB
